Values joined by “and” are separate entries in the source; they are usually repeats but may differ in a detail not shown here. Equal values may be shown once.
Key:
MMP2 = test: ELISA, MMP2 concentration; type: cell-based, human
Experimental: (§1) The concentrations of matrix metalloproteinase-2 (MMP2), matrix metalloproteinase-9 (MMP9), Bcl2, BAX, P53, Malondialdehyde (MDA), Glutathione (GSH), caspase 8, caspase 9 and IL-6 were measured quantitatively in 5c treated MCF7 and HEP2 cells using ELISA (Enzyme-Linked Immunosorbent Assay) (Table 4). Gelatinases are a collective word for MMP-2 and MMP-9, where MMP-2 is gelatinase-A and MMP-9 is gelatinase-B. Solid tumor invasion, metastasis, and angiogenesis have long been linked to gelatinases (Das et al. [2021]). […] Bcl2 is a crucial protein that targets apoptosis inhibition. It is regarded as a predictive biomarker or therapeutic target in the diagnosis of cancer due to its broad expression in a variety of cancers (Porter et al. [2009]). […] The pro-apoptotic protein BAX permeabilizes the mitochondrial outer membrane by changing from a cytosolic monomer to a hazardous oligomer triggering the apoptosis process (Fulda and Debatin [2006]). […] P53 transcription factor performs an essential tumor suppressor role by coordinating a wide range of physiological responses, including DNA repair, cell cycle arrest, cellular senescence, cell death, cell differentiation, and metabolism (Liebl and Hofmann [2021]). It was activated in MCF7 and HEP2-treated cells with values (4.28 and 3.109 ng/mL), respectively, compared to their controls (3.44 and 2.06 ng/mL). […]

Caspase 8 = test: ELISA, Caspase 8 concentration; type: cell-based, human
Experimental: as §1

[1] = system: normal African Green monkey kidney cell line (VERO); test: SRB cytotoxic assay, VERO normal cells; type: cell-based; conditions: Chlorocebus sabaeus, single dose 100 µg/mL, 48 h, read-out: %Inhibition at100 µg/mL VERO
Experimental: (§2) All the prepared compounds were screened at a concentration of 100 µg/mL against six different human cell lines: human laryngeal carcinoma (HEP2), human colorectal carcinoma (HCT116), human breast carcinoma (MCF7), human Lung carcinoma (A549), human liver carcinoma (HEPG2), and normal African Green monkey kidney cell line (VERO). Doxorubicin was used as a positive control for comparison purposes.
(§3) The human laryngeal carcinoma (HEP2), colorectal carcinoma (HCT116), breast carcinoma (MCF7), Lung carcinoma (A549), liver carcinoma (HEPG2), and normal African Green monkey kidney cell line (VERO) were purchased from American Tissue Culture Collection (Rockville, MD, USA). The cells were treated for 48 h with a single dose (100 µg/mL) of all the tested chalcones. […] In brief, the cells were seeded in a 96-well microtiter plate at a concentration of 5×10^3 cells/well in 100 µL fresh RPMI-1640 medium and left to attach to the plates for 24 h. Then, cells were incubated with 100 μL of different concentrations (50, 25, 12.5, 6.25, and 0.0 µg/mL) of 5c in triplicate at 37 °C for 48 h. After that, the cells were fixed with 10 µL cold 100% Trichloroacetic acid (TCA) for 1h at 4 °C. The wells were then washed 1 time with distilled water using (automatic Tecan washer, Germany) and stained for 30 min at room temperature with 50 µL 0.4% SRB dissolved in 1% acetic acid. The plates were air-dried and the dye was solubilized with 100 µl/well of 1M tris base (pH 10.5) for 5 min. The optical density (O.D.) of each well was measured spectrophotometrically at 570 nm with an ELISA microplate reader (Sunrise Tecan reader, Germany) with automatic shaking for 30 seconds before reading. The mean background absorbance was subtracted automatically and mean values for each drug concentration were calculated. The percentage of cell survival was calculated as follows: Survival fraction= O.D. (treated cells)/ O.D. (control cells) (Bhat et al. [2023]).

P53 = test: ELISA, P53 concentration; type: cell-based, human
Experimental: as §1

[2] = system: human liver carcinoma (HEPG2) cells; test: SRB cytotoxic assay, HEPG2; type: cell-based; conditions: single dose 100 µg/mL, 48 h, read-out: %Inhibition at100 µg/mL HEPG2
Experimental: as §2, §3

SMILES: COc1ccc(NC(=O)COc2ccc(C=CC(=O)c3cccs3)cc2)cc1 [Compound 5c, N-(4-Methoxyphenyl)-2-(4-(3-oxo-3-(thiophen-2-yl)prop-1-en-1-yl)phenoxy)acetamide]
- MMP2 concentration (MMP2; 5c treated HEP2 cells, untreated 461.58±45.11): 142.5 pg/mL and 142.5 ± 15.03 pg/mL
- MMP2 concentration (MMP2; 5c treated MCF7 cells, untreated 466.90±22.55): 185.125 pg/mL and 185.125 ± 30.07 pg/mL
- Caspase8 concentration (Caspase 8; 5c treated HEP2 cells, untreated 0.187±0.025): 2.27 ng/mL and 2.27 ± 0.142 ng/mL
- Caspase8 concentration (Caspase 8; 5c treated MCF7 cells, untreated 0.162±0.0203): 2.13 ng/mL and 2.13 ± 0.268 ng/mL
- inhibition at 100 µg/mL [1]: 58 ± 1.5%
- P53 concentration (P53; 5c treated HEP2 cells, untreated 2.06±0.425): 3.109 ng/mL and 3.109 ± 0.089 ng/mL
- P53 concentration (P53; 5c treated MCF7 cells, untreated 3.44±0.25): 4.28 ng/mL and 4.28 ± 0.188 ng/mL
- inhibition at 100 µg/mL [2]: 67 ± 1.6%
